Experimental data taken from article PMC4339887, “Selective Sirt2 inhibition by ligand-induced rearrangement of the active site” (Nature Communications, 2015).
“Also recorded” adds a separate entry of the source.

Assays:
[1] = tested on: p53-Lys382-acetylation in U2OS cells; assay: p53 acetylation after ultraviolet exposure, western blot; format: cell-based; conditions: 1 h pretreatment, 20 J cm^-2 UV, further 6 h
Method: U2OS cells (ATCC accession no. HTB-96) were seeded and cultured until they reached 90% confluency. […] Cells were incubated for an additional 6 h in the presence of the inhibitor and then lysed in IPLS (50 mM Tris/HCl, 150 mM NaCl; 0.5 mM EDTA; 0.5% (v/v) NP-40; 1 × Complete Protease Inhibitors (Roche), pH 8.0) and resuspended in 1 × Laemmli Buffer. Samples were then separated on SDS–PAGE, transferred to a nitrocellulose membrane (Bio-Rad), blocked with non-fat dry milk (Roth, 5% (w/v), TBS, 0.1% (v/v) Tween 20) and probed with anti-acetyl-p53 K382 (Cell Signaling, #2522), anti-p53 DO.1 (Santa Cruz Biotechnology, sc-126) and anti-vinculin (Cell Signaling, #4650) as a loading control. Uncropped blots are shown in the Supplementary Fig. 10.

human Sirt4 = target: T1, human Sirt4 (Homo sapiens, UniProt Q9Y6E7); assay: Sirt4-dependent deacetylation of acetylated Nnt397-peptide, LC-MS; format: biochemical; conditions: 200 μM, acetyl-lysine substrate
T1 construct: Human Sirt4_25–314 (Uniprot: Q9Y6E7); made in house
T1 sequence (Q9Y6E7 25-314): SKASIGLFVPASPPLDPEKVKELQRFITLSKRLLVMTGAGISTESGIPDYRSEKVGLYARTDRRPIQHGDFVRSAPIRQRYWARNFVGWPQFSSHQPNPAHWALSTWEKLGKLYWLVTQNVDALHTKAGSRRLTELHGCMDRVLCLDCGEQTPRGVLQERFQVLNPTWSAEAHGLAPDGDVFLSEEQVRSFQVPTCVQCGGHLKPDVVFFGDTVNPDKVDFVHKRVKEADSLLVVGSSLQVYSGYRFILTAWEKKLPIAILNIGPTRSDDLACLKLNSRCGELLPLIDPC
Method: Initial screens were conducted with a high-throughput fluorescence-based assay using the substrate ZMAL (Z-Lys(Acetyl)-AMC) that was synthesized according to published procedures. For this human Sirt1_133–747, human Sirt2_25–389, human Sirt3_101–399 or Sirt3_118–395 were mixed with assay buffer (50 mM Tris/HCl, 137 mM NaCl, 2.7 mM KCl, 1 mM MgCl2, pH 8.0), β-NAD^+ (final assay concentration 500 μM), the substrate ZMAL (final assay concentration 10.5 μM from a 12.6 mM stock solution in DMSO) and the respective inhibitor in DMSO at various concentrations or DMSO as a control (final DMSO concentration 5–20% (v/v)). The mixture was incubated at 37 °C for 4 h, with agitation at 150 r.p.m. […] Then the fluorescence intensity was measured in a microplate reader (BMG Polarstar, λex 390 nm, λem 460 nm). The amount of inhibition was determined with respect to the mixture with only DMSO. IC50 values were determined with Graphpad Prism software using a non-linear regression to fit the dose–response curve. […] Peaks of acetylated and deacetylated substrate were quantified by absorption at 280 nm. […] The samples were then diluted to a peptide concentration of 5 μM with 0.1% (v/v) formic acid and analysed on an EASY-nLCII connected to a LTQ mass spectrometer (Thermo Fisher Scientific). […]

BubR1 in HeLa cells = assay: abundance of BubR1, western blot; format: cell-based
Method: Cells were washed with PBS, lysed in IPLS (50 mM Tris/HCl, 150 mM NaCl, 0.5 mM EDTA, 0.5% (v/v) NP-40, pH 7.5, supplemented with Complete protease inhibitors (Roche)). Samples were pelleted and resuspended in 1 × SDS–PAGE sample buffer and heated (95 °C, 5 min). Cell samples were separated using SDS–PAGE (10% (w/v) polyacrylamide), transferred to a nitrocellulose membrane (Bio-Rad), blocked with non-fat dry milk (Roth, 5% (w/v), TBS, 0.1% (v/v) Tween 20) and probed with the anti-BubR1 (1:5,000, BD Biosciences, 612502) and anti-tubulin (1:5,000, Sigma-Aldrich, T5168) as a loading control. Uncropped blots are shown in the Supplementary Fig. 8.

human Sirt2 = target: T2, human Sirt2 (Homo sapiens, UniProt Q8IXJ6); assay: HPLC-based conversion assay, non-labelled acetyl-lysine α-tubulin peptide; conditions: SirReal2 100 μM, non-labelled acetyl-lysine oligopeptide
T2 sequence (Q8IXJ6 25-389): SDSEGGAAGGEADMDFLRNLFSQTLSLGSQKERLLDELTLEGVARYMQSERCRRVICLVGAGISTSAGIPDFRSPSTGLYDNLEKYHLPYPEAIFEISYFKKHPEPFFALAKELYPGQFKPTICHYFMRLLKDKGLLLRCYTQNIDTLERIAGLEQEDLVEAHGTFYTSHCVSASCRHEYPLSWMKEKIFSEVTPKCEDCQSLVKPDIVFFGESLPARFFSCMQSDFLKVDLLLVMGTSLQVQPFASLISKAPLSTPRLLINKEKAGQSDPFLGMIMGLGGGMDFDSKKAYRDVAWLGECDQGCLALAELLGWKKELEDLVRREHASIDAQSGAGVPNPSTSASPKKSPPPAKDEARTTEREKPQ

human Sirt6 = target: T3, human Sirt6 (Homo sapiens, UniProt Q8N6T7); assay: HPLC-based assay, non-labelled myristoyl-lysine peptide; format: biochemical; conditions: myristoyl-lysine substrate
T3 construct: human Sirt6_13–308 (Uniprot: Q8N6T7); made in house
T3 sequence (Q8N6T7 13-308): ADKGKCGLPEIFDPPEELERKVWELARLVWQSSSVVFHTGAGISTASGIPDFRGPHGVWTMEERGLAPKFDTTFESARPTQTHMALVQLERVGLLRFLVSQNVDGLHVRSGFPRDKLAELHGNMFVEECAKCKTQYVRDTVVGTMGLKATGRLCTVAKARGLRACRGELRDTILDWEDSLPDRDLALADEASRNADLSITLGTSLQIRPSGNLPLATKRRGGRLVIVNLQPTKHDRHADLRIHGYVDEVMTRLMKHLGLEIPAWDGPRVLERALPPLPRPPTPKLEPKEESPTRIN

Compound: Cc1cc(C)nc(SCC(=O)Nc2ncc(Cc3cccc4ccccc34)s2)n1 [SirReal2]
- acetylation of p53 (Lys382) after ultraviolet exposure [1]: does not affect; also recorded: did not observe an increase; also recorded: does not alter
- effect on activity of Sirt4 (human Sirt4): very little effect
- abundance of BubR1 (BubR1 in HeLa cells; 50 μM, in relation to DMSO control): significantly reduced
- abundance of BubR1 (BubR1 in HeLa cells; various concentrations, 16 h): reduction; also recorded: dose-dependent depletion
- activity of Sirt2 (human Sirt2): substantially reduced
- inhibition at 200 µM (human Sirt6): 19%
